Laboratory results from patent US20220110902A1, “Methods of treating amyloid-beta peptide diseases” (Ecole Polytechnique Federale de Lausanne, priority 2016, published 2022).
Entries after “also recorded” stand apart in the source; their conditions may differ.

What was measured:
[1] = test system: SH-SY5Y neuroblastoma cell line expressing the APP Swedish K670N/M671L double mutation (APPSwe); test: Immunostaining of intracellular Aβ deposits in APPSwe SH-SY5Y cells; type: cell-based, human
Method: The SH-SY5Y neuroblastoma cell line expressing the APP Swedish K670N/M671L double mutation (APPSwe) was a kind gift of Prof. Cedazo-Minguez (Karolinska Institute, Sweden). Cells were grown in DMEM/F-12, supplemented with 10% fetal bovine serum (FBS, Gibco), GlutaMAX (100×, Gibco) and penicillin/streptomycin (1×, Gibco). Cells were selected in 4 μg/mL Geneticin® Selective Antibiotic (G418 Sulfate, Sigma) and grown for three generations before experiments with cells plated and passaged at 4×10^3 cells/ml and 60% confluence, respectively. Cells were cultured at 37° C. under a 5% CO2 atmosphere and tested for mycoplasma using Mycoprobe (#CUL001B, R&D systems) following the manufacturer's instructions. Cells were treated with 10 μg/mL dox, NR 1 or 3 mM, ISRIB 0.5 μM (Sigma), as indicated for 24 hours before cell harvesting or fixation. For the immunostaining, cells were fixed with 1× Formal-Fixx (Thermo Scientific) for 15 min. After 15 min permeabilization with 0.1% Triton X-100, cells were blocked in PBS supplemented with 5% fetal bovine serum for 1 hour and immunostained overnight, at 4° C., with the anti-β-Amyloid 1-42 (1:100, Millipore AB5078P). The secondary antibody was coupled to the Alexa-488 fluorochrome (Thermo Scientific), and nuclei were stained with DAPI (Invitrogen, D1306). After washing in PBS, cell slides were mounted with Dako mounting medium (Dako, S3023) and examined with a Zeiss LSM 700 confocal microscope (Carl Zeiss MicroImaging) equipped with a Plan-Apochromat 40×/1.3 NA oil immersion objective lens using a 488 nm laser. Laser power was set at the lowest intensity allowing clear visualization of the signal. Imaging settings were maintained with the same parameters for comparison between different experimental conditions.
The SH-SY5Y neuroblastoma cell line expresses the APP Swedish K670N/M671L double mutation (APPSwe) (Zheng et al., 2011) and accumulates intracellular Aβ amyloid aggregates. Cells were grown in DMEM/F-12, supplemented with 10% fetal bovine serum (FBS, Gibco), GlutaMAX (100×, Gibco) and penicillin/streptomycin (1×, Gibco). Cells were selected in 4 μg/mL Geneticin® Selective Antibiotic (G418 Sulfate, Sigma) and grown for three generations before experiments with cells plated and passaged at 4×10{right arrow over ( )}3 cells/ml and 60% confluence, respectively. Cells were cultured at 37° C. under a 5% CO2 atmosphere and tested for mycoplasma using Mycoprobe (#CUL001B, R&D systems), following the manufacturer's instructions. Myriocin was dissolved in DMSO.
Cells were treated with 10 uM Myriocin and Fumonisin B1 for 24 hours before harvesting or fixation (FIG. 3A). For immunostaining, cells were fixed with 1× Formal-Fixx (Thermo Scientific) for 15 min. […]

[2] = test system: SH-SY5Y(APPSwe) cells; test: Western-blot and transcript analysis in SH-SY5Y(APPSwe) cells; type: cell-based, human; details: ISRIB 0.5 μM with dox 10 μg/mL, 24 h
Method: Human: Total RNA was extracted using guanidine-isothiocyanate lysis (PureLink, Ambion, Waltham, Mass.) from cortex samples, and RNA integrity and concentration was verified using Bioanalysis (Agilent, Santa Clara, Calif.). Samples were randomized based on diagnostic group and assayed in triplicate on a real-time PCR cycler (ABI 7500, Applied Biosystems, Foster City) in 96-well optical plates. qPCR was performed using Taqman hydrolysis probe primer sets (Applied Biosystems) specific for the following human transcripts: HSPA9, HSPD1, YMEIL1, DNM1L, BECN1, SQSTM1, PARK2, COX5A, CYC1. A primer set specific for human GAPDH was used as a control housekeeping transcript. For the APPSwe-expressing SH-SY5Y cell line, total RNA was extracted […] using TriPure RNA isolation reagent, and expression of selected transcripts was analyzed using the LightCycler480 system (Roche) and LightCycler® 480 SYBR Green I Master reagent (Roche). The GAPDH gene was used as housekeeping reference. The ddCT method was employed to determine relative levels of each amplicon. […] The SH-SY5Y neuroblastoma cell line expressing the APP Swedish K670N/M671L double mutation (APPSwe) was a kind gift of Prof. Cedazo-Minguez (Karolinska Institute, Sweden). Cells were grown in DMEM/F-12, supplemented with 10% fetal bovine serum (FBS, Gibco), GlutaMAX (100×, Gibco) and penicillin/streptomycin (1×, Gibco). Cells were selected in 4 μg/mL Geneticin® Selective Antibiotic (G418 Sulfate, Sigma) and grown for three generations before experiments with cells plated and passaged at 4×10^3 cells/ml and 60% confluence, respectively. Cells were cultured at 37° C. under a 5% CO2 atmosphere and tested for mycoplasma using Mycoprobe (#CUL001B, R&D systems) following the manufacturer's instructions. Cells were treated with 10 μg/mL dox, NR 1 or 3 mM, ISRIB 0.5 μM (Sigma), as indicated for 24 hours before cell harvesting or fixation. For the immunostaining, cells were fixed with 1× Formal-Fixx (Thermo Scientific) for 15 min. […]

[3] = test system: GMC101 worms; test: Worm phenotypic assays in GMC101: mobility, paralysis and death score; type: in vivo, C. elegans; details: GMC101, period of 4 days; UA 20 uM and 50 uM
Method: Doxycycline was obtained from Sigma-Aldrich and dissolved in water. For experiments, a final concentration of 15 μg/mL was used. Olaparib (AZD2281) was dissolved in DMSO to experimental concentrations of 300 nM. Nicotinamide Riboside triflate (NR) was custom synthesized by Novalix (www.novalix-pharma.com/) and dissolved in water, and used at a final concentration of 1 mM. Compounds were added just before pouring the plates. For phenotyping experiments, parental F0 L4 worms were allowed to reach adulthood and lay eggs on the treatment plates. The deriving F1 worms were therefore exposed to compounds during the full life from eggs until death. For RNA analysis experiments, synchronized L1 worms were exposed to the compounds until harvest. To ensure a permanent exposure to the compound, plates were changed twice a week.
Mobility: C. elegans movement analysis was performed as described, starting from day 1 of adulthood, using the Movement Tracker software. The experiments were repeated at least twice.
Paralysis and death score: 5 L4 worms per condition were allowed to reach adulthood and lay eggs on the treatment plates. 45 to 60 deriving F1 worms per condition were manually scored for paralysis after poking, as already described. Worms that were unable to respond to any, repeated stimulation, were scored as dead. Results are representative of the data obtained in at least three independent experiments.
(§1) During the assays, animals were exposed to Myriocin (dissolved in DMSO) from the egg stage on plates seeded with live HT115 E. coli bacteria. Control plates seeded with the same bacteria were prepared with the corresponding concentrations of DMSO. The day of the experiment (day 1 of adulthood, 3 days after hatching), the GMC101 population was shifted to 25° C. in order to induce the amyloid deposition in the body wall muscle. ˜1000 worms were used for western blotting assays.
C. elegans movement analysis was performed as described (Mouchiroud et al., 2016), using the Movement Tracker software. ˜50 adult worms were used per condition for movement assays.
To score for paralysis and death, 50 worms per condition were manually scored after poking as described (McCool et al., 2012; Florez-McClure et al., 2007). Worms that were unable to respond to repeated stimulation were scored as dead.
During the assays, animals were exposed to the compound UA from egg stage on plates seeded with live HT115 E. coli bacteria. Control plates seeded with the same bacteria were prepared with the corresponding concentrations of DMSO (0.1%). The day of the experiment (day 1 of adulthood, 3 days after hatching), the GMC101 population was shifted to 25° C. in order to induce the amyloid deposition in the body wall muscle. ˜50 adult worms were used per conditions.
C. elegans movement analysis was performed as described in (Mouchiroud et al., 2016), using the Movement Tracker software within a period of 4 days.

[4] = test system: C. elegans; details: cited from earlier work
[5] = test system: mouse models of age-related decline of muscle function; details: mouse models of age-related decline of muscle function, and young rats; cited from earlier work
[6] = test system: GMC101 worms; test: Western-blot of amyloid aggregation in GMC101 worms; type: in vivo, C. elegans; details: GMC101, 24 h after shift to 25° C.; UA 20 uM and 50 uM
Method: C. elegans: Worms were lysed by sonication with RIPA buffer containing protease and phosphatase inhibitors (Roche), and analyzed by SDS-PAGE and western blot. The concentration of extracted protein was determined by using the Bio-Rad Protein Assay. Proteins were detected using the following antibodies: anti-β-actin (Sigma), anti-tubulin (Santa Cruz), atp-5, ucr-1 (Oxphos cocktail, Abcam), anti-β-Amyloid, 1-16 (6E10) (BioLegend). In addition to the housekeeping proteins, loading was monitored by Ponceau Red to ensure a homogeneous loading. Pixel intensity was quantified by using ImageJ software. Each immunoblot experiment was repeated at least twice using 3 biological replicates each containing approximately 1000 worms.
as §1
Worms were lysed by sonication with RIPA buffer containing protease and phosphatase inhibitors (Roche), and analyzed by western blot. The concentration of extracted protein was determined by the Bio-Rad Protein Assay. Proteins were detected using the following antibodies: anti-β-actin (Sigma) and anti-β-Amyloid (BioLegend). In addition to the housekeeping proteins, loading was monitored by Ponceau Red to ensure a homogeneous loading. The immunoblot experiment employed 3 biological replicates, each containing approximately 1000 worms.
Worms were lysed by sonication with RIPA buffer containing protease and phosphatase inhibitors (Roche), and analyzed by western blot. The concentration of extracted proteins was determined by the Bio-Rad Protein Assay. Proteins were detected using the following antibodies: anti-β-actin (Sigma) and anti-β-Amyloid (BioLegend). In addition to the housekeeping proteins, loading was monitored by Ponceau Red to ensure a homogeneous loading. The immunoblot experiment employed 3 biologicals replicates, each containing approximately 1000 worms.
The GMC101 worms were recovered 24 h after being shifted at 25° C. The population was treated with UA at two different concentrations, ie 20 uM and 50 uM.

[7] = test system: GMC101 worms; test: Development and growth of GMC101 worms; type: in vivo, C. elegans; details: GMC101, eggs to day 1 of adulthood; dox 15 μg/mL
Method: Development: 50 adult worms per condition were transferred on NGM agar plates (10 worms per plate) and allowed to lay eggs for 3 h. Then they were removed and the number of eggs per plate was counted. 72 h later, the number of L1-L3 larvae, L4 and adult worms was counted. The experiment was done twice with five individual plates.

For `CCCC[C@H](C)[C@@H](OC(=O)C[C@H](CC(=O)O)C(=O)O)[C@@H](C[C@H](C)C[C@@H](O)CCCC[C@@H](O)C[C@H](O)[C@H](C)N)OC(=O)C[C@H](CC(=O)O)C(=O)O` [Fumonisin B1, (2S,2'S)-2,2′-{[(5S,6R,7R,9R,11S,16R,18S,19S)-19-Amino-11,16,18-trihydroxy-5,9-dimethylicosane-6,7-diyl]bis[oxy(2-oxoethane-2,1-diyl)]}disuccinic acid], the “intracellular Aβ deposits” value ([1]; 10 uM, 24 hours) was “significantly reduced; also recorded: markedly reduced”.

For `O=C(COc1ccc(Cl)cc1)NC1CCC(NC(=O)COc2ccc(Cl)cc2)CC1` (centres unmarked) [ISRIB, reference compound], the “dox-mediated induction of ATF4 target genes CHOP and CHAC1” value [2] was “hampered the dox-mediated induction” and the “amyloid clearance by dox after ISRIB pretreatment” value ([1]; ISRIB 0.5 μM with dox 10 μg/mL, 24 h) was “prevented amyloid clearance by dox”.

In the case of `O=c1oc2cc(O)ccc2c2ccc(O)cc12` [UA, 3,8-Dihydroxyurolithin], the “spontaneous movement (mobility)” value [3] is given as “dose-dependently increased; also recorded: dose-dependent increase”, the mitochondrial respiratory capacity ([4]; C. elegans during aging) is given as “maintaining mitochondrial respiratory capacity” and the “accumulation of dysfunctional mitochondria with age” value ([4]; C. elegans) is given as “prevent the accumulation of dysfunctional mitochondria with age”. The “activity during aging (mobility and pharyngeal pumping)” value ([4]; C. elegans) was “maintained normal activity during aging”, the lifespan ([4]; C. elegans) was “extended lifespan” and the exercise capacity [5] was “significantly improved exercise capacity”. The “accumulation of amyloid-β aggregates” value [6] was “dose-dependently reduced; also recorded: dose-dependent reduction”.

With `C[C@H]1c2cccc(O)c2C(=O)C2=C(O)[C@]3(O)C(=O)C(C(N)=O)=C(O)[C@@H](N(C)C)[C@@H]3[C@@H](O)[C@@H]21` [dox, doxycycline] the “development and growth delay” value [7] was “without causing major development and growth delays”.
